PubChem BioAssay AID280 (DTP/NCI, 2004)
Several values for one entry are separate records, joined by “and”; a condition that tells them apart may be missing. Identical values can stand only once. Inconclusive results and toxic doses are left out.

System: nude mice, LOX melanoma ip, survival T/C
Experiment: NCI In Vivo Anticancer Drug Screen. Data for tumor model Human Amelanotic Melanoma (LOX) (intraperitoneal) in NU/NU BALB/C (nude) mice
Conditions: endpoint: median survival time, higher = longer survival
Method: The antitumor activity of compounds was measured in mice bearing transplantable tumors. Survival or tumor size were measured and the results are expressed as the measurement made in the treated group (T) divided by the measurement made in the vehicle treated control group (C). The tumor model used in this assay is Human Amelanotic Melanoma (LOX) (intraperitoneal) in NU/NU BALB/C (nude) mice

[1] = dose: 50.0 mg/kg/injection, schedule: Q04DX003 (ip), vehicle: saline
[2] = dose: 100.0 mg/kg/injection, schedule: Q04DX003 (ip), vehicle: saline
[3] = dose: 75.0 mg/kg/injection, schedule: Q04DX003 (ip), vehicle: saline
[4] = dose: 150.0 mg/kg/injection, schedule: Q04DX003 (ip), vehicle: saline
[5] = dose: 50.0 mg/kg/injection, schedule: Q04DX003 (ip), vehicle: saline with Tween-80
[6] = dose: 100.0 mg/kg/injection, schedule: Q04DX003 (ip), vehicle: saline with Tween-80

SMILES: CC[C@@]1(O)C[C@H](OC2CC(N(C)C)C(OC3CC4OC5CC(=O)C(C)OC5OC4C(C)O3)C(C)O2)c2c(O)c3c(c(O)c2[C@H]1OC1CC(N(C)C)C(O)C(C)O1)C(=O)c1cccc(O)c1C3=O (stereo partly specified)
- T/C (dose: 63.0 micrograms/kg/injection, schedule: Q04DX003 (ip), vehicle: saline): 115 % of control
- T/C (dose: 125.0 micrograms/kg/injection, schedule: Q04DX003 (ip), vehicle: saline): 111 % of control
- T/C (dose: 250.0 micrograms/kg/injection, schedule: Q04DX003 (ip), vehicle: saline): 108 % of control and 94 % of control

SMILES: COc1ccc(/C=C\c2cc(OC)c(OC)c(OC)c2)c(O)c1O
- T/C (dose: 6.25 mg/kg/injection, schedule: Q04DX003 (ip), vehicle: saline + Tween-80 + alcohol): 97 % of control
- T/C (dose: 12.5 mg/kg/injection, schedule: Q04DX003 (ip), vehicle: saline + Tween-80 + alcohol): 110 % of control
- T/C (dose: 25.0 mg/kg/injection, schedule: Q04DX003 (ip), vehicle: saline + Tween-80 + alcohol): 124 % of control

SMILES: CCCCCCn1c(SC)nc(COC(=O)NC)c1COC(=O)NC
- T/C (dose: 33.7 mg/kg/injection, schedule: Q04DX003 (ip), vehicle: saline): 118 % of control
- T/C (dose: 40.1 mg/kg/injection, schedule: Q04DX003 (ip), vehicle: water): 97 % of control
- T/C (dose: 60.1 mg/kg/injection, schedule: Q04DX003 (ip), vehicle: water): 87 % of control
- T/C (dose: 67.5 mg/kg/injection, schedule: Q04DX003 (ip), vehicle: saline): 171 % of control
- T/C (dose: 90.0 mg/kg/injection, schedule: Q04DX003 (ip), vehicle: water): 97 % of control
- T/C (dose: 135.0 mg/kg/injection, schedule: Q04DX003 (ip), vehicle: saline): 208 % of control
- T/C (dose: 135.0 mg/kg/injection, schedule: Q04DX003 (ip), vehicle: water): 86 % of control
- T/C (dose: 202.4 mg/kg/injection, schedule: Q04DX003 (ip), vehicle: water): 99 % of control

SMILES: CN=NN(C)C(=O)NC
- T/C (dose: 25.0 mg/kg/injection, schedule: Q04DX003 (ip), vehicle: saline): 154 % of control
- T/C [1]: 188 % of control
- T/C [2]: 230 % of control

SMILES: CN1COc2c(n(C)c(=O)[nH]c2=O)C1
- T/C [1]: 96 % of control
- T/C (dose: 50.0 mg/kg/injection, schedule: Q04DX003 (ip), vehicle: suspension in saline): 102 % of control
- T/C [2]: 91 % of control
- T/C (dose: 100.0 mg/kg/injection, schedule: Q04DX003 (ip), vehicle: suspension in saline): 104 % of control
- T/C (dose: 200.0 mg/kg/injection, schedule: Q04DX003 (ip), vehicle: saline): 104 % of control
- T/C (dose: 200.0 mg/kg/injection, schedule: Q04DX003 (ip), vehicle: suspension in saline): 122 % of control
- T/C (dose: 400.0 mg/kg/injection, schedule: Q04DX003 (ip), vehicle: saline): 110 % of control
- T/C (dose: 400.0 mg/kg/injection, schedule: Q04DX003 (ip), vehicle: suspension in saline): 108 % of control
- T/C (dose: 800.0 mg/kg/injection, schedule: Q04DX003 (ip), vehicle: saline): 120 % of control
- T/C (dose: 800.0 mg/kg/injection, schedule: Q04DX003 (ip), vehicle: suspension in saline): 108 % of control

SMILES: S=C1CCCCN1
- T/C (dose: 37.5 mg/kg/injection, schedule: Q04DX003 (ip), vehicle: distilled water + Tween-80 + alcohol): 98 % of control
- T/C (dose: 75.0 mg/kg/injection, schedule: Q04DX003 (ip), vehicle: distilled water + Tween-80 + alcohol): 100 % of control
- T/C (dose: 150.0 mg/kg/injection, schedule: Q04DX003 (ip), vehicle: distilled water + Tween-80 + alcohol): 111 % of control

SMILES: c1cn[nH]c1
- T/C [3]: 109 % of control
- T/C [4]: 107 % of control

SMILES: NC(=S)N/N=C/c1cc(=O)c2cc(Cl)ccc2o1
- T/C (dose: 75.0 mg/kg/injection, schedule: Q04DX003 (ip), vehicle: other): 107 % of control
- T/C (dose: 150.0 mg/kg/injection, schedule: Q04DX003 (ip), vehicle: other): 101 % of control
- T/C (dose: 300.0 mg/kg/injection, schedule: Q04DX003 (ip), vehicle: other): 100 % of control
- T/C (dose: 600.0 mg/kg/injection, schedule: Q04DX003 (ip), vehicle: other): 105 % of control
- T/C (dose: 1200.0 mg/kg/injection, schedule: Q04DX003 (ip), vehicle: other): 101 % of control

SMILES: COc1ccc2oc3c(ccc[n+]3C)c(=O)c2c1
- T/C [5]: 108 % of control
- T/C [6]: 107 % of control
- T/C (dose: 200.0 mg/kg/injection, schedule: Q04DX003 (ip), vehicle: saline with Tween-80): 102 % of control
- T/C (dose: 400.0 mg/kg/injection, schedule: Q04DX003 (ip), vehicle: saline with Tween-80): 101 % of control

SMILES: c1ccc([Te][Te]c2ccccc2)cc1
- T/C (dose: 37.5 mg/kg/injection, schedule: Q04DX003 (ip), vehicle: saline with Tween-80): 102 % of control
- T/C (dose: 75.0 mg/kg/injection, schedule: Q04DX003 (ip), vehicle: saline with Tween-80): 92 % of control
- T/C (dose: 150.0 mg/kg/injection, schedule: Q04DX003 (ip), vehicle: saline with Tween-80): 112 % of control

SMILES: COc1cccc2c1[C@H]1CO[C@H]3C4C[C@H](C(=O)O)C([C@@H](C2)N13)N4C (stereo partly specified)
- T/C (dose: 0.62 mg/kg/injection, schedule: Q04DX003 (ip), vehicle: water): 121 % of control
- T/C (dose: 1.25 mg/kg/injection, schedule: Q04DX003 (ip), vehicle: water): 121 % of control
- T/C (dose: 5.0 mg/kg/injection, schedule: Q04DX003 (ip), vehicle: water): 196 % of control
- T/C (dose: 10.0 mg/kg/injection, schedule: Q04DX003 (ip), vehicle: water): 152 % of control
- T/C (dose: 20.0 mg/kg/injection, schedule: Q04DX003 (ip), vehicle: water): 177 % of control

SMILES: CC1(O)C=CC(=O)C=C1
- T/C (dose: 6.25 mg/kg/injection, schedule: Q04DX003 (ip), vehicle: water): 108 % of control
- T/C (dose: 12.5 mg/kg/injection, schedule: Q04DX003 (ip), vehicle: water): 101 % of control
- T/C (dose: 25.0 mg/kg/injection, schedule: Q04DX003 (ip), vehicle: water): 105 % of control
- T/C (dose: 50.0 mg/kg/injection, schedule: Q04DX003 (ip), vehicle: water): 111 % of control

SMILES: O=C1CNC(=O)N1CN1CCOCC1
- T/C (dose: 150.0 mg/kg/injection, schedule: Q04DX003 (ip), vehicle: Klucel (hydroxypropylcellulose) (HPC)): 177 % of control
- T/C (dose: 600.0 mg/kg/injection, schedule: Q04DX003 (ip), vehicle: Klucel (hydroxypropylcellulose) (HPC)): 152 % of control

SMILES: COc1cccc2c1C(=O)c1c(O)c3c(c(O)c1C2=O)C[C@](O)(C(=O)CO)CC3OC1CC(N)C(OC2CCCCO2)C(C)O1 (stereo partly specified)
- T/C (dose: 0.94 mg/kg/injection, schedule: Q04DX003 (ip), vehicle: water): 122 % of control
- T/C (dose: 7.5 mg/kg/injection, schedule: Q04DX003 (ip), vehicle: water): 160 % of control
- T/C (dose: 15.0 mg/kg/injection, schedule: Q04DX003 (ip), vehicle: water): 150 % of control

SMILES: CC1/C=C/C=C/CC/C=C/C=C/C=C/C=C/C(OC2OC(C)C(O)C(N)C2O)CC2OC(CC(O)C(O)CCC(O)CC(O)CC(O)CC(=O)OC(C)C(C)C1O)CC(O)C2C(=O)O (stereo unspecified)
- T/C (dose: 25.0 mg/kg/injection, schedule: Q04DX003 (ip), vehicle: saline with Tween-80): 101 % of control
- T/C [5]: 101 % of control
- T/C [6]: 111 % of control

SMILES: O=C(Oc1ccccc1)c1cc(O)c(O)c(O)c1
- T/C (dose: 37.5 mg/kg/injection, schedule: Q04DX003 (ip), vehicle: saline): 157 % of control
- T/C [3]: 99 % of control
- T/C [4]: 152 % of control
- T/C (dose: 300.0 mg/kg/injection, schedule: Q04DX003 (ip), vehicle: saline): 88 % of control
- T/C (dose: 600.0 mg/kg/injection, schedule: Q04DX003 (ip), vehicle: saline): 94 % of control

SMILES: Cc1c2ccccc2c(C)c2c1cc(C(=O)O)c1ccccc12
- T/C (dose: 12.5 mg/kg/injection, schedule: Q04DX003 (ip), vehicle: sodium bicarbonate): 115 % of control
- T/C (dose: 25.0 mg/kg/injection, schedule: Q04DX003 (ip), vehicle: sodium bicarbonate): 118 % of control
- T/C (dose: 200.0 mg/kg/injection, schedule: Q04DX003 (ip), vehicle: sodium bicarbonate): 167 % of control

SMILES: CC(O)CCC(=O)c1ccoc1 (stereo unspecified)
- T/C (dose: 10.8 mg/kg/injection, schedule: Q01DX001 (ip), vehicle: propolene glycol): 103 % of control and 118 % of control and 119 % of control
- T/C (dose: 30.0 mg/kg/injection, schedule: Q01DX001 (ip), vehicle: propolene glycol): 117 % of control
